# Reference: patent US20240382483A1, “HETEROCYCLIC EGFR INHIBITORS FOR USE IN THE TREATMENT OF CANCER” (Blueprint Medicines Corporation, priority 2021, published 2024)
# Where two headings read alike, the source gives them in different places.
# What was measured:
# [1] = target: T1, EGFR (L858R T790M C797S) (Homo sapiens, UniProt P00533, C797S/L858R/T790M); experiment: Biochemical EGFR inhibition assay (Caliper mobility shift), EGFR LRTMCS
# T1 construct: purchased SignalChem E10-122VG
# Summary of the method: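 Kinase reactions at 25 °C run to 10–20% peptide phosphorylation, stopped with 35 mM EDTA. Phosphorylated product and substrate separated electrophoretically by mobility shift. Apparent IC50 from percent activity versus log compound concentration.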
# [2] = target: T2, intracellular phosphorylation of EGFR in NCI-H1975 cell line that harbors the EGFR L858R T790M mutations (Homo sapiens, UniProt P00533, L858R/T790M); experiment: NCI-H1975 pEGFR AlphaLISA assay; assay type: cell-based; conditions: NCI-H1975 cells (EGFR L858R T790M), p-EGFR (Tyr1068), 4-5 hours incubation; read-out: Ext pEGFR H1975 GMean IC50 (nM) Protocol: @Pharmaron AlphaLISA (Num)
# T2 construct: NCI-H1975 cell line that harbors the EGFR L858R T790M mutations (ATCC, CRL-5908); host or cells: NCI-H1975
# Method: On the next day, the test compounds and DMSO control were added into H1975 cell plate followed by incubation at 37C/5% CO2 for 4-5 hours. […] Then 5 μL of a donor bead mix was added to each well followed by overnight incubation at room temperature in dark. On the next day, the plate was read at a compatible plate reader to obtain pEGFR signal. Percent of pEGFR inhibition was plotted against log concentration of compounds to generate IC50 values.
# [3] = LRTMCS (PH) IC50 (nM) @ 1 mM ATP (Num), EGFR LRTMCS mutant
# T2 sequence (P00533 25-1210 T790M/L858R): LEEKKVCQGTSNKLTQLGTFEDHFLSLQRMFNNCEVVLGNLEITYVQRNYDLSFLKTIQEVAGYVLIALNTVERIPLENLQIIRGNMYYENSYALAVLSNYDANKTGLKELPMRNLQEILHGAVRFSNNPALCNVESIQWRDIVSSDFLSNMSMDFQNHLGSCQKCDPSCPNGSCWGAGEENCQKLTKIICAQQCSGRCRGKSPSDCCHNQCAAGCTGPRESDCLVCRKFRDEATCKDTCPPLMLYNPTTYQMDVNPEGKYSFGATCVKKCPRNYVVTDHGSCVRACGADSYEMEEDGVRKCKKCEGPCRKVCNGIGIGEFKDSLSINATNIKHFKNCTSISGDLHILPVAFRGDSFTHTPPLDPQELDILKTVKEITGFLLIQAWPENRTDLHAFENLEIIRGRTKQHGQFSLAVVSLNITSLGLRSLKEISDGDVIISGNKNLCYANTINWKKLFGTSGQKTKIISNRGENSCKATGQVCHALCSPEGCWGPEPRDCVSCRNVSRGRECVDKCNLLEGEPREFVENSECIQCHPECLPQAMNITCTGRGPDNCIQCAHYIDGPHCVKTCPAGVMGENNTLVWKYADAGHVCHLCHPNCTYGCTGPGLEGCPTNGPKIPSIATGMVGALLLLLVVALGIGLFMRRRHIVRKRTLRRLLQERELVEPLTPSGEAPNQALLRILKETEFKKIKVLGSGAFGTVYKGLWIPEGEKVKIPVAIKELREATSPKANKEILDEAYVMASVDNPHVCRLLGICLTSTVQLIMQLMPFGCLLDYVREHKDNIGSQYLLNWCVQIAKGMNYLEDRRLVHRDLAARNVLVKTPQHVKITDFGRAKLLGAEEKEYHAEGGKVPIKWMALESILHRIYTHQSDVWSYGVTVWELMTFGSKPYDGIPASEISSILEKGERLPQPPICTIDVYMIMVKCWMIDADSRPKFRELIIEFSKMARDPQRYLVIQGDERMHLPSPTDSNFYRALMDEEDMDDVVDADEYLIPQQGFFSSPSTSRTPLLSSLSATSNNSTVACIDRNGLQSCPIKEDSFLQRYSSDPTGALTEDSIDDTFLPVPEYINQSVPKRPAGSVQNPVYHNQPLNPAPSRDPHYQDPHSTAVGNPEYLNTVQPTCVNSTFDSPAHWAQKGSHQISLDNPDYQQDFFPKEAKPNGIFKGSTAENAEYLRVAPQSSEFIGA
# T1 sequence (P00533 25-1210 T790M/C797S/L858R): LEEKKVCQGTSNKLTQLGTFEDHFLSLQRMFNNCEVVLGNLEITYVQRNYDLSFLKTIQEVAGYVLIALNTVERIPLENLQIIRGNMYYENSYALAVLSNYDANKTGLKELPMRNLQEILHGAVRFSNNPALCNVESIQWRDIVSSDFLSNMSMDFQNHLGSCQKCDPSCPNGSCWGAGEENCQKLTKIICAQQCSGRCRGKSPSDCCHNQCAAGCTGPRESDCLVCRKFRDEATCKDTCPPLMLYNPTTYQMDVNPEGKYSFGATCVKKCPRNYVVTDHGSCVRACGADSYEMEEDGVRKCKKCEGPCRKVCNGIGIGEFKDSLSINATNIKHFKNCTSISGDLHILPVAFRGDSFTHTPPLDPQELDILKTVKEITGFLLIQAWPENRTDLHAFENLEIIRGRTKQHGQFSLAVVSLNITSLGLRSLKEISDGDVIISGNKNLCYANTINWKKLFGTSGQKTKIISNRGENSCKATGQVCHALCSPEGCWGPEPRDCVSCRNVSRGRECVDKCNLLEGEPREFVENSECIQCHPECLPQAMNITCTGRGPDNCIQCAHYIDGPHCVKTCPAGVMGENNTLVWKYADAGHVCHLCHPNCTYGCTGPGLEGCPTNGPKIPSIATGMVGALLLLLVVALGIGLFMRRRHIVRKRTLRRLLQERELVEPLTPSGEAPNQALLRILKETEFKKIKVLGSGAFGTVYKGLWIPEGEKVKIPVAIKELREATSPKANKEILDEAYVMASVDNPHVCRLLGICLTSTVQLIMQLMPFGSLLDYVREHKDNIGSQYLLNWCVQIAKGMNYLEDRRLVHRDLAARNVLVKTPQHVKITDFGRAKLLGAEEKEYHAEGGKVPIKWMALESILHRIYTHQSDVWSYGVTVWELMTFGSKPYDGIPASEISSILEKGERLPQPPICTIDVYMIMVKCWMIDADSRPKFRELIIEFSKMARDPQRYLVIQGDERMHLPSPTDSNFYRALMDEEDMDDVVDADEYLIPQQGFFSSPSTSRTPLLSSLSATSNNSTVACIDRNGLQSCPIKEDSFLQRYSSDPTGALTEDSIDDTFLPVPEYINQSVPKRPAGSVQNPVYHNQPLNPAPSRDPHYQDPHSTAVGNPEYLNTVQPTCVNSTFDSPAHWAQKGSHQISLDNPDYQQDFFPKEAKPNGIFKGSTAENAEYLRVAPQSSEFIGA
Compound,"IC50 [1, 3]",IC50 [2],"IC50 ([1]; read-out: LRTMCS (PH) IC50 (nM) @ 1 mM ATP (Num), EGFR LRTMCS mutant)"
"CO[C@H]1CCN(c2nccc(Nc3cc4c(C(C)C)cnc(N5CC[C@H]5C)c4cn3)n2)C[C@H]1OCCO (single isomer, unassigned) [Example 167, 2-(((3R,4S)-1-(4-((5-isopropyl-8-((R)-2-methylazetidin-1-yl)-2,7-naphthyridin-3-yl)amino)pyrimidin-2-yl)-4-methoxypiperidin-3-yl)oxy)ethan-1-ol or 2-(((3S,4R)-1-(4-((5-isopropyl-8-((R)-2-methylazetidin-1-yl)-2,7-naphthyridin-3-yl)amino)pyrimidin-2-yl)-4-methoxypiperidin-3-yl)oxy)ethan-1-ol]",< 15 nM,< 10 nM,
"CC(C)c1cnc(N2CC3(CCS3(=O)=O)C2)c2cnc(Nc3ccnc(N4CC[C@@](C)(O)[C@@H](F)C4)n3)cc12 (single isomer, unassigned) [Example 174, 6-(6-((2-((3S,4R)-3-fluoro-4-hydroxy-4-methylpiperidin-1-yl)pyrimidin-4-yl)amino)-4-isopropyl-2,7-naphthyridin-1-yl)-1-thia-6-azaspiro[3.3]heptane 1,1-dioxide or 6-(6-((2-((3R,4S)-3-fluoro-4-hydroxy-4-methylpiperidin-1-yl)pyrimidin-4-yl)amino)-4-isopropyl-2,7-naphthyridin-1-yl)-1-thia-6-azaspiro[3.3]heptane 1,1-dioxide]",20 to 30 nM,> 50 nM,
"CC(C)c1cnc(N2CC3(CCS3(=O)=O)C2)c2cnc(Nc3ccnc(N4CC[C@@](C)(O)[C@@H](F)C4)n3)cc12 (single isomer, unassigned) [Example 175, 6-(6-((2-((3S,4R)-3-fluoro-4-hydroxy-4-methylpiperidin-1-yl)pyrimidin-4-yl)amino)-4-isopropyl-2,7-naphthyridin-1-yl)-1-thia-6-azaspiro[3.3]heptane 1,1-dioxide or 6-(6-((2-((3R,4S)-3-fluoro-4-hydroxy-4-methylpiperidin-1-yl)pyrimidin-4-yl)amino)-4-isopropyl-2,7-naphthyridin-1-yl)-1-thia-6-azaspiro[3.3]heptane 1,1-dioxide]",< 15 nM,> 50 nM,
"C[C@H](c1cnc(N2CC[C@H]2C)c2cnc(Nc3ccnc(N4CC[C@@H](O)[C@@](C)(F)C4)n3)cc12)C1COC1 (single isomer, unassigned) [Example 176, (3S,4R)-3-fluoro-3-methyl-1-(4-((8-((R)-2-methylazetidin-1-yl)-5-((S)-1-(oxetan-3-yl)ethyl)-2,7-naphthyridin-3-yl)amino)pyrimidin-2-yl)piperidin-4-ol or (3S,4R)-3-fluoro-3-methyl-1-(4-((8-((R)-2-methylazetidin-1-yl)-5-((R)-1-(oxetan-3-yl)ethyl)-2,7-naphthyridin-3-yl)amino)pyrimidin-2-yl)piperidin-4-ol]",< 15 nM,20 to 30 nM,
"C[C@H](c1cnc(N2CC[C@H]2C)c2cnc(Nc3ccnc(N4CC[C@@H](O)[C@@](C)(F)C4)n3)cc12)C1COC1 (single isomer, unassigned) [Example 177, (3S,4R)-3-fluoro-3-methyl-1-(4-((8-((R)-2-methylazetidin-1-yl)-5-((S)-1-(oxetan-3-yl)ethyl)-2,7-naphthyridin-3-yl)amino)pyrimidin-2-yl)piperidin-4-ol or (3S,4R)-3-fluoro-3-methyl-1-(4-((8-((R)-2-methylazetidin-1-yl)-5-((R)-1-(oxetan-3-yl)ethyl)-2,7-naphthyridin-3-yl)amino)pyrimidin-2-yl)piperidin-4-ol]",,20 to 30 nM,< 15 nM
"C[C@H](CO)c1ncc(N2CC[C@H]2C)c2cnc(Nc3ccnc(N4CC[C@@H](O)[C@@](C)(F)C4)n3)cc12 (single isomer, unassigned) [Example 178, (3S,4R)-3-fluoro-1-(4-((5-((S)-1-hydroxypropan-2-yl)-8-((R)-2-methylazetidin-1-yl)-2,6-naphthyridin-3-yl)amino)pyrimidin-2-yl)-3-methylpiperidin-4-ol or (3S,4R)-3-fluoro-1-(4-((5-((R)-1-hydroxypropan-2-yl)-8-((R)-2-methylazetidin-1-yl)-2,6-naphthyridin-3-yl)amino)pyrimidin-2-yl)-3-methylpiperidin-4-ol]",20 to 30 nM,> 50 nM,
"CC(C)c1cnc(N2CC[C@H]2C)c2cnc(Nc3cnnc(N4CC[C@@H](O)[C@@](C)(F)C4)n3)cc12 (single isomer, unassigned) [Example 179, (3S,4R)-3-fluoro-1-(5-((5-isopropyl-8-((R)-2-methylazetidin-1-yl)-2,7-naphthyridin-3-yl)amino)-1,2,4-triazin-3-yl)-3-methylpiperidin-4-ol or (3R,4S)-3-fluoro-1-(5-((5-isopropyl-8-((R)-2-methylazetidin-1-yl)-2,7-naphthyridin-3-yl)amino)-1,2,4-triazin-3-yl)-3-methylpiperidin-4-ol]",< 15 nM,10 to 20 nM,

# The remaining lines, values ahead:
"IC50 [1, 3]",IC50 [2],"IC50 ([1]; read-out: LRTMCS (PH) IC50 (nM) @ 1 mM ATP (Num), EGFR LRTMCS mutant)",Compound
< 15 nM,30 to 50 nM,,"CC(C)c1cnc(N2C[C@H](O)[C@H]2C)c2cnc(Nc3ccnc(N4CC[C@@H](O)C(C)(C)C4)n3)cc12 (single isomer, unassigned) [Example 168, (R)-1-(4-((8-((2R,3S)-3-hydroxy-2-methylazetidin-1-yl)-5-isopropyl-2,7-naphthyridin-3-yl)amino)pyrimidin-2-yl)-3,3-dimethylpiperidin-4-ol or (S)-1-(4-((8-((2R,3S)-3-hydroxy-2-methylazetidin-1-yl)-5-isopropyl-2,7-naphthyridin-3-yl)amino)pyrimidin-2-yl)-3,3-dimethylpiperidin-4-ol]"
< 15 nM,30 to 50 nM,,"CC(C)c1cnc(N2C[C@H](O)[C@H]2C)c2cnc(Nc3ccnc(N4CC[C@@H](O)C5(CC5)C4)n3)cc12 (single isomer, unassigned) [Example 169, (R)-5-(4-((8-((2R,3S)-3-hydroxy-2-methylazetidin-1-yl)-5-isopropyl-2,7-naphthyridin-3-yl)amino)pyrimidin-2-yl)-5-azaspiro[2.5]octan-8-ol or (S)-5-(4-((8-((2R,3S)-3-hydroxy-2-methylazetidin-1-yl)-5-isopropyl-2,7-naphthyridin-3-yl)amino)pyrimidin-2-yl)-5-azaspiro[2.5]octan-8-ol]"
< 15 nM,20 to 30 nM,,"CC(C)c1cnc(N2C[C@H](O)[C@H]2C)c2cnc(Nc3ccnc(N4CC[C@](C)(O)[C@](C)(F)C4)n3)cc12 (single isomer, unassigned) [Example 170, (3R,4S)-3-fluoro-1-(4-((8-((2R,3S)-3-hydroxy-2-methylazetidin-1-yl)-5-isopropyl-2,7-naphthyridin-3-yl)amino)pyrimidin-2-yl)-3,4-dimethylpiperidin-4-ol or (3S,4R)-3-fluoro-1-(4-((8-((2R,3S)-3-hydroxy-2-methylazetidin-1-yl)-5-isopropyl-2,7-naphthyridin-3-yl)amino)pyrimidin-2-yl)-3,4-dimethylpiperidin-4-ol]"
< 15 nM,30 to 50 nM,,"CC(C)c1cnc(N2C[C@H](O)[C@H]2C)c2cnc(Nc3ccnc(N4CC[C@](C)(O)C(F)(F)C4)n3)cc12 (single isomer, unassigned) [Example 171, (S)-3,3-difluoro-1-(4-((8-((2R,3S)-3-hydroxy-2-methylazetidin-1-yl)-5-isopropyl-2,7-naphthyridin-3-yl)amino)pyrimidin-2-yl)-4-methylpiperidin-4-ol or (R)-3,3-difluoro-1-(4-((8-((2R,3S)-3-hydroxy-2-methylazetidin-1-yl)-5-isopropyl-2,7-naphthyridin-3-yl)amino)pyrimidin-2-yl)-4-methylpiperidin-4-ol]"
15 to 20 nM,> 50 nM,,"CC(C)c1cnc(N2C[C@H](O)[C@H]2C)c2cnc(Nc3ccnc(N4CC[C@@](C)(O)[C@@H](F)C4)n3)cc12 (single isomer, unassigned) [Example 172, (3S,4R)-3-fluoro-1-(4-((8-((2R,3S)-3-hydroxy-2-methylazetidin-1-yl)-5-isopropyl-2,7-naphthyridin-3-yl)amino)pyrimidin-2-yl)-4-methylpiperidin-4-ol or (3R,4S)-3-fluoro-1-(4-((8-((2R,3S)-3-hydroxy-2-methylazetidin-1-yl)-5-isopropyl-2,7-naphthyridin-3-yl)amino)pyrimidin-2-yl)-4-methylpiperidin-4-ol]"
< 15 nM,30 to 50 nM,,"CC(C)c1cnc(N2C[C@H](O)[C@H]2C)c2cnc(Nc3ccnc(N4CC[C@@](C)(O)[C@@H](F)C4)n3)cc12 (single isomer, unassigned) [Example 173, (3S,4R)-3-fluoro-1-(4-((8-((2R,3S)-3-hydroxy-2-methylazetidin-1-yl)-5-isopropyl-2,7-naphthyridin-3-yl)amino)pyrimidin-2-yl)-4-methylpiperidin-4-ol or (3R,4S)-3-fluoro-1-(4-((8-((2R,3S)-3-hydroxy-2-methylazetidin-1-yl)-5-isopropyl-2,7-naphthyridin-3-yl)amino)pyrimidin-2-yl)-4-methylpiperidin-4-ol]"
